Source: patent US9890175B2, “Taxane compound, and preparation method and use thereof” (JIANGSU TASLY DIYI PHARMACEUTICAL CO., LTD., priority 2013, dated 2018)
Where two headings read alike, the source gives them in different places.

Columns and labels:
[1] = tested on: A2780 ovarian cancer; experiment: MTT proliferation inhibition, A2780; format: cell-based; details: Homo sapiens, A2780, read-out: Proliferation inhibition rate, A2780 Ovarian cancer
Text: (§1) 1. Cytotoxicity Assay Using Human Tumor Cell Lines
(§2) Paclitaxel was used as the positive drug.

[2] = tested on: Hela cervical cancer; experiment: MTT proliferation inhibition, HeLa; format: cell-based; details: Homo sapiens, read-out: Proliferation inhibition rate, HeLa Uterin cancer
Text: as §1, §2

[3] = tested on: MCF-7 breast cancer cells; experiment: MTT proliferation inhibition, MCF-7; format: cell-based; details: Homo sapiens, MCF7, read-out: Proliferation inhibition rate, MCF-7 Breast cancer
Text: as §1, §2

[4] = tested on: NCI-H460 non-small cell lung cancer; experiment: MTT proliferation inhibition, NCI-H460; format: cell-based; details: Homo sapiens, NCI-H460, read-out: Proliferation inhibition rate, NCI-H460 Non-small cell lung cancer
Text: as §1, §2

[5] = tested on: A375 melanoma; experiment: MTT proliferation inhibition, A375; format: cell-based; details: Homo sapiens, A-375, read-out: Proliferation inhibition rate, A375 Melanoma
Text: as §1, §2

[6] = tested on: HT-29 colon cancer; experiment: MTT proliferation inhibition, HT-29; format: cell-based; details: Homo sapiens, HT-29, read-out: Proliferation inhibition rate, HT29 Colon cancer
Text: as §1, §2

[7] = tested on: HL-60 leukemia; experiment: MTT proliferation inhibition, HL-60; format: cell-based; details: Homo sapiens, HL-60, read-out: Proliferation inhibition rate, HL60 Leukemia
Text: as §1, §2

[8] = tested on: Du145 prostate cancer; experiment: MTT proliferation inhibition, Du145; format: cell-based; details: Homo sapiens, DU-145, read-out: Proliferation inhibition rate, DU145 Prostate cancer
Text: as §1, §2

[9] = tested on: MDA-MB-436 breast cancer cells; experiment: MTT proliferation inhibition, MDA-MB-436; format: cell-based; details: Homo sapiens, MDA-MB-436, read-out: Proliferation inhibition rate, MDA-MB-436 Breast cancer
Text: as §1, §2

[10] = tested on: LN-18; experiment: MTT proliferation inhibition, LN-18; format: cell-based; details: Homo sapiens, LN-18, read-out: Proliferation inhibition rate, LN-18 Gastric canser
Text: as §1, §2

[11] = tested on: BGC-823 gastric cancer; experiment: MTT proliferation inhibition, BGC-823; format: cell-based; details: Homo sapiens, BGC-823, read-out: Proliferation inhibition rate, BGC-823 Gastric cancer
Text: as §1, §2

[12] = tested on: A549 non-small cell lung cancer; experiment: MTT proliferation inhibition, A549; format: cell-based; details: Homo sapiens, A549, read-out: Proliferation inhibition rate, A549 Non-small cell lung cancer
Text: as §1, §2

[13] = tested on: B16 melanoma; experiment: MTT proliferation inhibition, B16; format: cell-based; details: B16, read-out: Proliferation inhibition rate, B16 Melanoma
Text: as §1, §2

[14] = tested on: HCT 116 colon cancer; experiment: MTT proliferation inhibition, HCT 116; format: cell-based; details: Homo sapiens, HCT-116, read-out: Proliferation inhibition rate, HCT 116 Colon cancer
Text: as §1, §2

[15] = tested on: K562 leukemia; experiment: MTT proliferation inhibition, K562; format: cell-based; details: Homo sapiens, K562, read-out: Proliferation inhibition rate, K562 Leukemia
Text: as §1, §2

[16] = tested on: LNCaP prostate cancer; experiment: MTT proliferation inhibition, LNCaP; format: cell-based; details: Homo sapiens, read-out: Proliferation inhibition rate, LNCaP Prostate cancer
Text: as §1, §2

[17] = tested on: breast cancer cell line MCF-7; experiment: IC50 on breast cancer cell line MCF-7; format: cell-based; details: Homo sapiens, MCF7, 72 h, read-out: MCF-7 (IC50, nM)
Experimental: From the activity evaluation data of the above-mentioned preliminary screen, it can be seen that the series of taxanes derivatives synthesized in the present invention have activity. Afterward, the compounds are investigated to examine their IC50 values on breast cancer cell line MCF-7. […] Experiments for each compound were independently repeated for three times and multiple holes were used in each experiment. The exposure time of drugs was 72 hours.

[18] = Caco-2 cell monolayer membrane transport assay (Papp and recovery); format: in vitro ADME; details: human, Caco-2, Caco-2, A-B
Text: Caco-2 Cell Monolayer Membrane Transport Assay
(§3) Human-derived colorectal adenocarcinoma cell line Caco-2 cell monolayer model was used to study the bidirectional transport of the target compounds from the apical (AP) side to the basolateral (BL) side and from BL side to AP side. HPLC was used for quantitative analysis to calculate transport parameters, apparent permeability coefficient (Papp) and the efflux ratio.

[19] = Caco-2 bidirectional transport, efflux ratio; details: human, Caco-2
Text: as §3

[20] = Mean, read-out: Recovery rate in mass, Mean
[21] = Sample-01, read-out: Papp A-B, Sample-01
[22] = Sample-01, read-out: Recovery rate in mass, Sample-01
[23] = Sample-02, read-out: Papp A-B, Sample-02
[24] = Sample-02, read-out: Recovery rate in mass, Sample-02

CO[C@H]1C(=O)[C@]2(C)[C@@H](OC)C[C@H]3OC[C@@]3(OC(C)=O)[C@H]2[C@H](OC(=O)c2ccccc2)[C@]23OC(=O)O[C@H]2[C@H](OC(=O)[C@H](O)[C@@H](NC(=O)N(C)C)c2ccccc2)C(C)=C1C3(C)C [PCMI-03]
inhibition at 1 µM [1]: 95.1% | inhibition at 1 µM [2]: 99.4% | inhibition at 1 µM [3]: 95.3% | inhibition at 1 µM [4]: 85.3% | inhibition at 1 µM [5]: 88.6% | inhibition at 1 µM [6]: 88.5% | inhibition at 1 µM [7]: 95.7% | inhibition at 1 µM [8]: 85% | inhibition at 1 µM [9]: 80.1% | inhibition at 1 µM [10]: 95.3% | inhibition at 1 µM [11]: 92.3% | inhibition at 1 µM [12]: 68.6% | inhibition at 1 µM [13]: 78.2% | inhibition at 1 µM [14]: 58.3% | inhibition at 1 µM [15]: 93.6% | inhibition at 1 µM [16]: 82.6% | IC50 [17]: 2.89 ± 0.1 nM | Papp A→B ([18]; Mean, read-out: Papp A-B, Mean): 3.67 ×10⁻⁶ cm/s | recovery [18, 20]: 61.7% | Papp A→B [18, 21]: 3.45 ×10⁻⁶ cm/s | recovery [18, 22]: 65.1% | Papp A→B [18, 23]: 3.89 ×10⁻⁶ cm/s | recovery [18, 24]: 58.2% | Papp A→B [19]: 2.97 ×10⁻⁶ cm/s | Papp B→A [19]: 28.6 ×10⁻⁶ cm/s | efflux ratio [19]: 9.62

CO[C@H]1C(=O)[C@]2(C)[C@@H](OC)C[C@H]3OC[C@@]3(OC(C)=O)[C@H]2[C@H](OC(=O)c2ccccc2)[C@]23OC(=O)O[C@H]2[C@H](OC(=O)[C@H](O)[C@@H](NC(=O)OC(C)(C)C)c2ccccn2)C(C)=C1C3(C)C [PCMI-04]
inhibition at 1 µM [1]: 94.7% | inhibition at 1 µM [2]: 98.3% | inhibition at 1 µM [3]: 101% | inhibition at 1 µM [4]: 81.8% | inhibition at 1 µM [5]: 82.2% | inhibition at 1 µM [6]: 88.3% | inhibition at 1 µM [7]: 95.8% | inhibition at 1 µM [8]: 83.9% | inhibition at 1 µM [9]: 79.4% | inhibition at 1 µM [10]: 91.8% | inhibition at 1 µM [11]: 89.8% | inhibition at 1 µM [12]: 66.3% | inhibition at 1 µM [13]: 73.2% | inhibition at 1 µM [14]: 55% | inhibition at 1 µM [15]: 91.5% | inhibition at 1 µM [16]: 79.2% | IC50 [17]: 3.4 ± 0.14 nM | recovery [18, 20]: 75.9% | Papp A→B [18, 21]: 4.46 ×10⁻⁶ cm/s | recovery [18, 22]: 85.2% | Papp A→B [18, 23]: 2.86 ×10⁻⁶ cm/s | recovery [18, 24]: 66.5% | Papp A→B [19]: 3.21 ×10⁻⁶ cm/s | Papp B→A [19]: 26.4 ×10⁻⁶ cm/s | efflux ratio [19]: 8.24

CO[C@H]1C[C@H]2OC[C@@]2(OC(C)=O)[C@H]2[C@H](OC(=O)c3ccccc3)[C@]34OC(=O)O[C@H]3[C@H](OC(=O)[C@H](O)[C@@H](NC(=O)OC(C)(C)C)c3ccccn3)C(C)=C([C@@H](OC(=O)N(C)C)C(=O)[C@]12C)C4(C)C [PCMI-09]
inhibition at 1 µM [1]: 95.6% | inhibition at 1 µM [2]: 101% | inhibition at 1 µM [3]: 89.8% | inhibition at 1 µM [4]: 85.8% | inhibition at 1 µM [5]: 96.9% | inhibition at 1 µM [6]: 87.8% | inhibition at 1 µM [7]: 98.5% | inhibition at 1 µM [8]: 90.3% | inhibition at 1 µM [9]: 81.3% | inhibition at 1 µM [10]: 95% | inhibition at 1 µM [11]: 94.9% | inhibition at 1 µM [12]: 75.8% | inhibition at 1 µM [13]: 81.7% | inhibition at 1 µM [14]: 65.5% | inhibition at 1 µM [15]: 92.6% | inhibition at 1 µM [16]: 86.2% | IC50 [17]: 14.31 ± 0.12 nM | recovery [18, 20]: 76.5% | Papp A→B [18, 21]: 5.78 ×10⁻⁶ cm/s | recovery [18, 22]: 70.4% | Papp A→B [18, 23]: 3.59 ×10⁻⁶ cm/s | recovery [18, 24]: 82.6% | Papp A→B [19]: 3.56 ×10⁻⁶ cm/s | Papp B→A [19]: 29 ×10⁻⁶ cm/s | efflux ratio [19]: 8.14

CO[C@H]1C(=O)[C@]2(C)[C@@H](OC(=O)N(C)C)C[C@H]3OC[C@@]3(OC(C)=O)[C@H]2[C@H](OC(=O)c2ccccc2)[C@]23OC(=O)O[C@H]2[C@H](OC(=O)[C@H](O)[C@@H](NC(=O)OC(C)(C)C)c2ccccc2)C(C)=C1C3(C)C [PCMI-14]
inhibition at 1 µM [1]: 94.2% | inhibition at 1 µM [2]: 99.9% | inhibition at 1 µM [3]: 88.5% | inhibition at 1 µM [4]: 86.9% | inhibition at 1 µM [5]: 95.3% | inhibition at 1 µM [6]: 87.3% | inhibition at 1 µM [7]: 97.5% | inhibition at 1 µM [8]: 89.8% | inhibition at 1 µM [9]: 80.2% | inhibition at 1 µM [10]: 93.5% | inhibition at 1 µM [11]: 95.8% | inhibition at 1 µM [12]: 76.2% | inhibition at 1 µM [13]: 80.3% | inhibition at 1 µM [14]: 65.5% | inhibition at 1 µM [15]: 92.7% | inhibition at 1 µM [16]: 85.3% | IC50 [17]: 15.4 ± 0.16 nM | Papp A→B ([18]; Mean, read-out: Papp A-B, Mean): 3.04 ×10⁻⁶ cm/s | recovery [18, 20]: 91.3% | Papp A→B [18, 21]: 3.21 ×10⁻⁶ cm/s | recovery [18, 22]: 95% | Papp A→B [18, 23]: 2.87 ×10⁻⁶ cm/s | recovery [18, 24]: 87.6% | Papp A→B [19]: 1.98 ×10⁻⁶ cm/s | Papp B→A [19]: 19 ×10⁻⁶ cm/s | efflux ratio [19]: 9.58
